US10112935B2, “Indazolyl thiadiazolamines and related compounds for inhibition of Rho-associated protein kinase and the treatment of disease” (Lycera Corporation, priority 2015, dated 2018)

Legend:
[1] = target: GST-tagged human ROCK2 catalytic domain 1-553 (Homo sapiens (Human), UniProt O75116); assay: Inhibition of Rho-associated protein kinase isoform 2 (LANCE Ultra ULight-CREBtide FRET kinase assay); format: biochemical; settings: for IC50: 30 μM was the highest concentration analyzed; for Selectivity for ROCK2 over ROCK1 (IC50 ROCK1 / IC50 ROCK2): selectivity ROCK2 vs ROCK1
Sequence of GST-tagged human ROCK2 catalytic domain 1-553 (O75116 1-553): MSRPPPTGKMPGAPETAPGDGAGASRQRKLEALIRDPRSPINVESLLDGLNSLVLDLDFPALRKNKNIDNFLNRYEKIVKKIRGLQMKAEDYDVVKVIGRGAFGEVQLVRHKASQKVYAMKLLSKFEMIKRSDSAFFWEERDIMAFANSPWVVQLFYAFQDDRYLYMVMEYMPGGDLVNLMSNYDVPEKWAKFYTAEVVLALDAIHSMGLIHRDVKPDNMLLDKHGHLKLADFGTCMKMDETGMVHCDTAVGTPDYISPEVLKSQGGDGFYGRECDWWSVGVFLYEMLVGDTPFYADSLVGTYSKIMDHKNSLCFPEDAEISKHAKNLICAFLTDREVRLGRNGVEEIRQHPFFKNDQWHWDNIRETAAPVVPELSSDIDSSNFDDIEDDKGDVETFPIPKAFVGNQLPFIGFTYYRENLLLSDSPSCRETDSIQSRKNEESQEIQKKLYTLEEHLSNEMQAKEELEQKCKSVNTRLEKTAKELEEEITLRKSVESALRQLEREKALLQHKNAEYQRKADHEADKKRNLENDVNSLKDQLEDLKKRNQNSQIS
How it was run: (§1)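 Baculovirus-expressed kinase phosphorylated ULight-CREBtide for 90 min at room temperature before the reaction was stopped with 10 mM EDTA. Phospho-substrate was detected by TR-FRET with 1 nM Europium-anti-phospho-CREB (Ser133) antibody after 60 min at room temperature.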

[2] = target: GST-tagged human ROCK1 catalytic domain 1-477 (Homo sapiens (Human), UniProt Q13464); assay: Inhibition of Rho-associated protein kinase isoform 1 (LANCE Ultra ULight-CREBtide FRET kinase assay); format: biochemical; settings: 30 μM was the highest concentration analyzed
Sequence of GST-tagged human ROCK1 catalytic domain 1-477 (Q13464 1-477): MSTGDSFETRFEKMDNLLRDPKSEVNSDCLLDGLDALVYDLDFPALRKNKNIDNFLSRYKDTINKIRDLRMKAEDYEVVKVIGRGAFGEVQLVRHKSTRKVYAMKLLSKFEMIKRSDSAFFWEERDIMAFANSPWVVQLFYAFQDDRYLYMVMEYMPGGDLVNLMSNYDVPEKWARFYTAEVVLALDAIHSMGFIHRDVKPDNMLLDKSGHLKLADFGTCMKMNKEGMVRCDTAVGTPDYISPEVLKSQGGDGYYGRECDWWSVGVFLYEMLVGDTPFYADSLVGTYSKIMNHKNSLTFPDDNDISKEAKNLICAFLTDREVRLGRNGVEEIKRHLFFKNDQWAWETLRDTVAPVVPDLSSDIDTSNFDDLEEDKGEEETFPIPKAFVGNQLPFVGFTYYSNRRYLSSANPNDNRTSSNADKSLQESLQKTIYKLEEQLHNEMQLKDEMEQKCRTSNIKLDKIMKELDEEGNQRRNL
How it was run: as §1

Row | Structure (SMILES) | IC50 [1] | Selectivity for ROCK2 over ROCK1 (IC50 ROCK1 / IC50 ROCK2) [1] | IC50 [2]
1 | Clc1c(Nc2nnc(-c3cccc(-c4nccn4C4COC4)c3)s2)ccc2[nH]ncc12 [Example 37, N-(4-Chloro-1H-indazol-5-yl)-5-(3-(1-(oxetan-3-yl)-1H-imidazol-2-yl)phenyl)-1,3,4-thiadiazol-2-amine] | < 1 µM | >100 | > 30 µM
2 | Cc1cnn(CC(=O)Nc2cccc(-c3nnc(N(C)c4ccc5[nH]ncc5c4Cl)s3)c2)c1 [Example 54C] | 1 to 15 µM | <5 | 1 to 15 µM
3 | O=C(Nc1cccc(-c2nnc(Nc3ccc4[nH]ncc4c3Cl)s2)c1)c1cnccn1 [Example 35BR] | < 1 µM | >100 | > 30 µM
4 | CN1CCN(C(=O)Nc2ccc(-c3nnc(Nc4ccc5[nH]ncc5c4Cl)s3)cc2)CC1 [Example 75D] | < 1 µM | >5 | < 1 µM
5 | CC(=O)Cc1cccc(-c2nnc(Nc3ccc4[nH]ncc4c3Cl)s2)c1 [Example 35AF] | < 1 µM | >5 | 1 to 15 µM
6 | O=C(O)Cn1cc(C(=O)Nc2cc(F)c(F)c(-c3nnc(Nc4ccc5[nH]ncc5c4)s3)c2)cn1 [Example 35AY] | < 1 µM | >75 | > 30 µM
7 | Nc1cccc(-c2nnc(Nc3ccc4[nH]ncc4c3)s2)c1 [Example A-47] | 1 to 15 µM | >5 | > 30 µM
8 | CC(=O)N(C)c1cccc(-c2nnc(Nc3ccc4[nH]ncc4c3Cl)s2)c1 [Example 35AZ] | 1 to 15 µM | >5 | > 30 µM
9 | N[C@@H]1CCN(c2nnc(Nc3ccc4[nH]ncc4c3)s2)C1 [Example A-38] | 1 to 15 µM | <5 | 1 to 15 µM
10 | NC1CCN(C(=O)Nc2cccc(-c3nnc(Nc4ccc5[nH]ncc5c4)s3)c2)C1 (stereo not shown) [Example A-35] | < 1 µM | <5 | 1 to 15 µM
11 | O=C(O)C(F)(F)F.OCCn1ccnc1-c1cccc(-c2nnc(Nc3ccc4[nH]ncc4c3Cl)s2)c1 [Example 45A, 2-(2-(3-(5-((4-Chloro-1H-indazol-5-yl)amino)-1,3,4-thiadiazol-2-yl)phenyl)-1H-imidazol-1-yl)ethan-1-ol 2,2,2-trifluoroacetic Acid Solvate] | < 1 µM | >75 | 1 to 15 µM
12 | Cn1cc(C(=O)Nc2cccc(-c3nnc(Nc4ccc5[nH]nc(F)c5c4)s3)c2)cn1 [Example 35BW] | > 30 µM | – | > 30 µM
13 | O=C(Nc1cccc(-c2nnc(Nc3ccc4[nH]ncc4c3)s2)c1)c1cccnc1 [Example A-50] | < 1 µM | >100 | > 30 µM
14 | O=C(Cc1ccc(F)cc1)Nc1cc(-c2nnc(Nc3ccc4[nH]ncc4c3Cl)s2)ccn1 [Example 35G] | < 1 µM | >5 | < 1 µM
15 | Nc1cc(-c2nnc(Nc3ccc4[nH]ncc4c3)s2)ccn1.O=C(O)C(F)(F)F [Example 35CQ] | < 1 µM | >100 | > 30 µM
16 | OC1(c2cccc(-c3nnc(Nc4ccc5[nH]ncc5c4Cl)s3)c2)COC1 [Example 35AJ] | < 1 µM | >75 | > 30 µM
17 | COc1cccc(C(=O)Nc2cccc(-c3nnc(Nc4ccc5[nH]ncc5c4Cl)s3)c2)c1 [Example 35BT] | < 1 µM | >5 | < 1 µM
18 | O=C(Nc1cccc(-c2nnc(Nc3ccc4[nH]ncc4c3)s2)c1)c1cnn(CC(O)CO)c1 (stereo not shown) [Example 35CG] | < 1 µM | >5 | < 1 µM
19 | Brc1ccc(-c2cn3cccc(-c4nnc(Nc5ccc6[nH]ncc6c5)s4)c3n2)cc1 [Example 52G] | < 1 µM | >100 | > 30 µM

Row | Structure (SMILES) | IC50 [1] | Selectivity for ROCK2 over ROCK1 (IC50 ROCK1 / IC50 ROCK2) [1] | IC50 [2]
20 | Cc1coc(-c2cc(-c3nnc(Nc4ccc5[nH]ncc5c4Cl)s3)ccn2)n1 [Example 40, N-(4-Chloro-1H-indazol-5-yl)-5-(2-(4-methyloxazol-2-yl)pyridin-4-yl)-1,3,4-thiadiazol-2-amine] | < 1 µM | >5 | < 1 µM
21 | C[C@H](N)C(=O)Nc1cccc(-c2nnc(Nc3ccc4[nH]ncc4c3Cl)s2)c1 [Example 35AA] | < 1 µM | >5 | 1 to 15 µM
22 | c1cc(-c2nnco2)cc(-c2nnc(Nc3ccc4[nH]ncc4c3)s2)c1 [Example A-6] | > 30 µM | <5 | > 30 µM
23 | O=[N+]([O-])c1cccc(-c2nnc(Nc3ccc4[nH]ncc4c3)s2)c1 [Example A-45] | 1 to 15 µM | <5 | 1 to 15 µM
24 | O=C(O)C(F)(F)F.O=C(O)CS(=O)(=O)Nc1cccc(-c2nnc(Nc3ccc4[nH]ncc4c3)s2)c1 [Example 35CD] | 1 to 15 µM | <5 | 1 to 15 µM
25 | CCc1cn2cccc(-c3nnc(Nc4ccc5[nH]nc(C)c5c4)s3)c2n1 [Example 50A] | < 1 µM | >5 | 1 to 15 µM
26 | CC1(C)CN=C(c2cccc(-c3nnc(Nc4ccc5[nH]ncc5c4Cl)s3)c2)O1 [Example 75Q] | < 1 µM | >5 | 1 to 15 µM
27 | CC(C)NC(=O)COc1cccc(-c2nnc(Nc3ccc4[nH]ncc4c3)s2)c1 [Example 35CP] | < 1 µM | >5 | 15 to 30 µM
28 | CC(=O)Nc1cc(CN(C)C)cc(-c2nnc(Nc3ccc4[nH]ncc4c3Cl)s2)c1.O=C(O)C(F)(F)F [Example 48C] | < 1 µM | >5 | 1 to 15 µM
29 | Cc1cc(C(=O)Nc2cccc(-c3nnc(Nc4ccc5[nH]ncc5c4)s3)c2)[nH]n1 [Example A-39] | < 1 µM | >5 | 1 to 15 µM
30 | Cn1cccc(-c2nnc(Nc3ccc4[nH]ncc4c3Cl)s2)c1=O.O=C(O)C(F)(F)F [Example 56H] | < 1 µM | >100 | > 30 µM
31 | CC(=O)Nc1cc(CN2CCOCC2)cc(-c2nnc(Nc3ccc4[nH]ncc4c3Cl)s2)c1.O=C(O)C(F)(F)F [Example 48D] | < 1 µM | >5 | 1 to 15 µM
32 | CN(c1nnc(-c2cccc(NC(=O)Cc3ccc(F)cc3)c2)s1)c1ccc2[nH]ncc2c1Cl [Example 75U] | > 30 µM | – | > 30 µM
33 | COCCn1ccnc1-c1cccc(-c2nnc(Nc3ccc4[nH]ncc4c3Cl)s2)c1.O=C(O)C(F)(F)F [Example 44, N-(4-Chloro-1H-indazol-5-yl)-5-(3-(1-(2-methoxyethyl)-1H-imidazol-2-yl)phenyl)-1,3,4-thiadiazol-2-amine 2,2,2-trifluoroacetic Acid Solvate] | < 1 µM | >5 | < 1 µM
34 | Brc1cc(-c2nnc(Nc3ccc4[nH]ncc4c3)s2)c2nccn2c1 [Example 52F] | < 1 µM | >100 | > 30 µM
35 | O=C(Nc1cc(-c2nnc(Nc3ccc4[nH]ncc4c3Cl)s2)ccc1C(F)(F)F)c1cnn(CCO)c1 [Example 48M] | < 1 µM | >5 | < 1 µM
36 | COc1ccc(NC(C)=O)cc1-c1nnc(Nc2ccc3[nH]ncc3c2Cl)s1 [Example 48J] | < 1 µM | >5 | < 1 µM
37 | FC(F)(F)c1nc2c(-c3nnc(Nc4ccc5[nH]ncc5c4Cl)s3)cc(Br)cn2n1 [Example 50B] | < 1 µM | >100 | 1 to 15 µM
38 | Cn1cc(C(=O)Nc2ccc(-c3nnc(Nc4ccc5[nH]ncc5c4)s3)cc2)cn1 [Example A-27] | > 30 µM | <5 | > 30 µM
